Measurements taken from paper PMC3364162 (Journal of Medicinal Chemistry, 2012).

T1: SRC2-2 coactivator peptide SRC2-2 (Homo sapiens, UniProt Q15596)
T1 chain: KHKILHRLLQDSS

B1: Vitamin D receptor (protein)
chain: MEAMAASTSLPDPGDFDRNVPRICGVCGDRATGFHFNAMTCEGCKGFFRRSMKRKALFTCPFNGDCRITKDNRRHCQACRLKRCVDIGMMKEFILTDEEVQRKREMILKRKEEEALKDSLRPKLSEEQQRIIAILLDAHHKTYDPTYSDFCQFRPPVRVNDGGGSHPSRPNSRHTPSFSGDSSSSCSDHCITSSDMMDSSSFSNLDLSEEDSDDPSVTLELSQLSMLPHLADLVSYSIQKVIGFAKMIPGFRDLTSEDQIVLLKSSAIEVIMLRSNESFTMDDMSWTCGNQDYKYRVSDVTKAGHSLELIEPLIKFQVGLKKLNLHEEEHVLLMAICIVSPDRPGVQDAALIEAIQDRLSNTLQTYIRCRHPPPGSHLLYAKMIQKLADLRSLNEEHSKQYRCLSFQPECSMKLTPLVLEVFGNEIS

Test system: HEK293T cells
Experiment: Toxicity by CellTiter-Glo
Assay type: cell-based, human
Details: Conc. 62.5 μM
With `COc1cccc(C(Nc2ccccn2)c2c(C)[nH]c3ccccc23)c1` (stereo not shown) [compound 13] the “Toxicity (%)” value was 60%. With `Cc1ccc(C(Nc2ccccn2)c2c(C)[nH]c3ccccc23)cc1` (stereo not shown) [compound 12] the “Toxicity (%)” value was 90%. With `COCC(=O)Oc1c(Sc2ccc(Cl)cc2)c(C)nn1-c1ccccc1` [compound 26] the “Toxicity (%)” value was 0%. With `COc1ccc(OC)c(S(=O)(=O)ON2C(=O)c3ccccc3C2=O)c1` [compound 21] the “Toxicity (%)” value was 50%. With `Cc1[nH]c2ccccc2c1C(Nc1ccccn1)c1cccc(Cl)c1` (stereo not shown) [compound 18] the “Toxicity (%)” value was 100%. In the case of `Cc1ccc(S(=O)(=O)ON2C(=O)c3ccccc3C2=O)cc1` [compound 20], the “Toxicity (%)” value is reported as 50%. With `Cc1[nH]c2ccccc2c1C(Nc1ccccn1)c1ccc(F)cc1` (stereo not shown) [compound 16] the “Toxicity (%)” value was 100%. With `COc1ccc(C(Nc2ccccn2)c2c(C)[nH]c3ccccc23)cc1` (stereo not shown) [compound 11] the “Toxicity (%)” value was 100%. With `Cc1c(C=O)c(C(=O)O)c(C)n1Cc1ccc(Cl)cc1` [compound 23] the “Toxicity (%)” value was 20%.

Test system: not listed separately
Experiment: in vitro
Details: PAMPA, pH 7.4
With `COc1ccc(/C=C/C2=[N+](C)c3ccc(OC)cc3C2(C)C)cc1` [compound 2] the Papp was 0.282 ×10⁻⁶ cm/s. In the case of `COC(=O)c1ccc(/C=C/C2=[N+](C)c3ccc(OC)cc3C2(C)C)cc1` [compound 4], the Papp is reported as 0.0117 ×10⁻⁶ cm/s. For `COCC(=O)Oc1c(Sc2ccc(Cl)cc2)c(C)nn1-c1ccccc1` [compound 26], the Papp was 0.0331 ×10⁻⁶ cm/s. `Cc1cccc(N2COc3ccc4ccccc4c3C2)c1` [compound 29] showed a Papp of 1.12 ×10⁻⁶ cm/s. For `CC(C)S(=O)(=O)c1oc(-c2cccs2)nc1S(=O)(=O)c1ccccc1` [compound 10], the Papp was 0.437 ×10⁻⁶ cm/s. `O=Cc1nc2ccccc2n1Cc1ccc(Cl)cc1Cl` [compound 25] gave a Papp of 0.302 ×10⁻⁶ cm/s. Work on `CC(C)CS(=O)(=O)c1oc(-c2cccs2)nc1S(=O)(=O)c1ccc(F)cc1` [compound 9] yielded a Papp of 0.166 ×10⁻⁶ cm/s. With `COc1ccc(OC)c(S(=O)(=O)ON2C(=O)c3ccccc3C2=O)c1` [compound 21] the Papp was 0.0145 ×10⁻⁶ cm/s. Molecule `Cc1[nH]c2ccccc2c1C(Nc1ccccc1)c1ccc(CCCO)cc1` (stereo not shown) [30i] has a Papp of 0.148 ×10⁻⁶ cm/s. Molecule `CCS(=O)(=O)c1oc(-c2cccs2)nc1S(=O)(=O)c1ccccc1` [compound 8] has a Papp of 0.214 ×10⁻⁶ cm/s. For `CCCS(=O)(=O)c1oc(-c2cccs2)nc1S(=O)(=O)c1ccc(F)cc1` [compound 7], the Papp was 0.251 ×10⁻⁶ cm/s. `CCOc1ccc(/C=C/C2=[N+](C)c3ccc(C(=O)OC)cc3C2(C)C)cc1` [compound 3] showed a Papp of 0.00603 ×10⁻⁶ cm/s. In the case of `Cc1ccc(S(=O)(=O)ON2C(=O)c3ccccc3C2=O)cc1` [compound 20], the Papp is reported as 0.00195 ×10⁻⁶ cm/s. For `O=Cc1nc2ccccc2n1Cc1ccc2ccccc2c1` [compound 24], the Papp was 0.513 ×10⁻⁶ cm/s. Work on `Nc1nc2ccc(S(=O)(=O)N3CCCCC3)cc2s1` [compound 27] yielded a Papp of 0.0525 ×10⁻⁶ cm/s. `CCCCNC(=O)Cn1sc2nc(C)cc(C)c2c1=O` [compound 28] showed a Papp of 0.166 ×10⁻⁶ cm/s. `CCc1ccc(S(=O)(=O)ON2C(=O)c3ccccc3C2=O)cc1` [compound 22] showed a Papp of 0.0148 ×10⁻⁶ cm/s. With `COC(=O)c1ccc2c(c1)C(C)(C)C(/C=C/c1ccc(O)cc1)=[N+]2C` [compound 5] the Papp was 0.02 ×10⁻⁶ cm/s. With `Cc1c(C=O)c(C(=O)O)c(C)n1Cc1ccc(Cl)cc1` [compound 23] the Papp was 0.00525 ×10⁻⁶ cm/s. `COC(=O)c1ccc2c(c1)C(C)(C)C(/C=C/c1ccc(OC)cc1)=[N+]2C` [compound 1] gave a Papp of 0.0138 ×10⁻⁶ cm/s.

Target: T1, SRC2-2 coactivator peptide SRC2-2
Experiment: not given
Details: not given
For B1, the Kd was 1700 nM.

Test system: DU145 cells
Experiment: Cytotoxicity in DU145 cells
Assay type: cell-based, human
Details: not given
For `Cc1[nH]c2ccccc2c1C(Nc1ccc(Cl)cc1)c1ccccc1Cl` (stereo not shown) [31b], the “Concentration above which increased cytotoxicity was observed” value was “higher than 20 μM”.
